Laboratory results published in patent US8618082B2, “Lupeol anti-tumor agent and uses thereof” (Wisconsin Alumni Research Foundation, priority 2004, dated 2013).

Experiments:
IκBα protein = assay: TPA-induced phosphorylation and degradation of IκBα (western blot); format: in vivo, mouse
Protocol: FIG. 6. Inhibitory effect of Lupeol on TPA-induced activation of IKKα, and phosphorylation and degradation of IκBα in CD-1 mice: At different times after treatment, the animals were sacrificed, epidermal cytosolic was prepared, and protein expression was determined. Equal loading was confirmed by stripping the immunoblot and reprobing it for β-actin. The immunoblots shown here are representative of three independent experiments with similar results. The values above each lane indicate relative density of the band normalized to β-actin.
The animals were shaved on the dorsal side of the skin, divided into four groups and treated topically on the shaved area with either 0.4 ml vehicle (acetone), or TPA (3.2 nmol/0.4 ml acetone/animal, v/v), or Lupeol (1 or 2 mg/0.2 ml acetone/animal, w/v) followed 30 min later with TPA (3.2 nmol/0.2 ml acetone/animal). […]
Epidermis from the whole skin was separated as described earlier (Katiyar et al., 1999) and was homogenized in ice-cold lysis buffer [50 mM Tris-HCl, 150 mM NaCl, 1 mM EGTA, 1 mM EDTA, 20 mM NaF, 100 mM Na3VO4, 0.5% NP-40, 1% Triton X-100, 1 mM PMSF (pH 7.4)] with freshly added protease inhibitor cocktail, Protease Inhibitor Cocktail Set III (Calbiochem, La Jolla, Calif., USA). […] The protein content in the lysates was measured by DC BioRad assay (BioRad Laboratories, Hercules, Calif.) as per the manufacturer's protocol. […]

[1] = test system: NFκB-DNA binding activity; assay: NFκB-DNA binding by electrophoretic mobility shift assay (EMSA); format: in vivo; settings: prior application of Lupeol to mouse skin
Protocol: (b) At different times after treatment, the animals were sacrificed, nuclear lysates were prepared, and DNA binding was determined by […] as described under ‘Materials and Methods’. C1, C2, and C3 refer to inter experimental controls, where C1 represents biotin-EBNA (epistein barr virus nuclear antigen) control DNA, C2 represents Biotin-EBNA control DNA and EBNA extract and C3 represents Biotin-EBNA control DNA and EBNA extract plus 200 fold molar excess of EBNA DNA.
Epidermis from the whole skin was separated as described earlier (Katiyar et al., 1999) and was homogenized in ice-cold lysis buffer [50 mM Tris-HCl, 150 mM NaCl, 1 mM EGTA, 1 mM EDTA, 20 mM NaF, 100 mM Na3VO4, 0.5% NP-40, 1% Triton X-100, 1 mM PMSF (pH 7.4)] with freshly added protease inhibitor cocktail, Protease Inhibitor Cocktail Set III (Calbiochem, La Jolla, Calif., USA). […] The protein content in the lysates was measured by DC BioRad assay (BioRad Laboratories, Hercules, Calif.) as per the manufacturer's protocol.
EMSA for NFκB was performed using Lightshift™ chemiluminescent EMSA kit (Pierce, Rockford, Ill., USA) by following the manufacturer's protocol. […] The biotin end-labeled DNA was detected using streptavidin-horseradish peroxidase conjugate and a chemiluminescent substrate. […]

Fas receptor protein = assay: Fas receptor expression in LNCaP cells treated with Lupeol plus anti-Fas mAb (western blot); format: cell-based, human; settings: anti-Fas mAb pretreated LNCaP cells treated with Lupeol
Protocol: FIG. 16 depicts cells that were treated with vehicle (DMSO+alcohol) only or specified concentrations of Lupeol alone, anti-Fas mAb or with combination (Lupeol+anti-Fas mAb) for 48 h, harvested and total cell lysates were prepared. The expression of Fas receptor protein in total cell lysate was determined by western blot analysis. Equal loading was confirmed by stripping immunoblots and reprobing them for β-actin. The immunoblots shown here are representative of three independent experiments with similar results.

SMILES: C=C(C)[C@@H]1CC[C@]2(C)CC[C@]3(C)[C@H](CC[C@@H]4[C@@]5(C)CC[C@H](O)C(C)(C)[C@@H]5CC[C@]43C)[C@@H]12 [Lupeol, Lup-20(29)-en-3β-ol]
- TPA-induced degradation of IκBα protein (IκBα protein; topical Lupeol 30 min prior to TPA): significant inhibition
- TPA-induced phosphorylation of IκB protein (Ser32) (IκBα protein; topical Lupeol prior to TPA): dose dependent inhibition
- TPA-induced epidermal NFκB DNA binding activity [1]: significantly inhibited
- Fas protein expression (Fas receptor protein): highly increased
